The values below come from PubChem BioAssay (NCI).

Some test systems named below: SK-MEL-28 melanoma; UACC-62 melanoma; RPMI-8226 leukemia; A549 NSCLC; UO-31 renal; MOLT-4 leukemia; HCT-116 colon; MDA-MB-231 breast; PC-3 prostate.
Common to all, as to experiment: inhibition of tumour cell growth, NCI panel, 48 h

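Where inhibition never reached the appropriate level, the endpoint shown equals the highest concentration tested. Otherwise, values were interpolated linearly from a five-concentration, 48-hour dose response in 96-well plates. Abbreviation: GI50, concentration required for 50% inhibition of growth. TGI denotes the concentration required for complete inhibition of growth.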 Bounds are passed on as bounds.

`Cc1cc2c(C)nn(Cc3ccccc3)c2c(C(=O)O)c1C`: the TGI with SK-MEL-28 melanoma, with UACC-62 melanoma, in the experiment with RPMI-8226 leukemia, in the experiment with A549 NSCLC, in the experiment on UO-31 renal and in the experiment on MOLT-4 leukemia was more than 100 µM each time. For the same compound, the TGI in the experiment with HCT-116 colon was more than 100 µM.

`CCOC(=O)NC(=O)c1cn(CCN2CCN(C(=O)NCCCCCCNC(=O)N3CCN(CCn4cc(C(=O)NC(=O)OCC)c(=O)[nH]c4=O)CC3)CC2)c(=O)[nH]c1=O`: the TGI with SK-MEL-28 melanoma, with UACC-62 melanoma, in the experiment on RPMI-8226 leukemia, in the experiment on A549 NSCLC, with UO-31 renal and with HCT-116 colon was more than 100 µM each time.

Regarding `C/C=C/C(C#N)O[Si](C)(C)C` (stereo not drawn), the TGI in the experiment with SK-MEL-28 melanoma, with UACC-62 melanoma, in the experiment on A549 NSCLC, in the experiment on UO-31 renal, with MOLT-4 leukemia and in the experiment with HCT-116 colon was more than 100 µM each time.

For the compound `O=C(Oc1cccnc1)c1cccnc1Nc1ccnc(C(F)(F)F)c1`, the GI50 with MDA-MB-231 breast is 14.1 µM; in the experiment with SK-MEL-28 melanoma, 38.1 µM; in the experiment on PC-3 prostate, 7.03 µM; in the experiment on UACC-62 melanoma it was 5.78 µM; in the experiment on RPMI-8226 leukemia it was 3.94 µM; in the experiment on A549 NSCLC, more than 100 µM. Besides, the GI50 in the experiment with UO-31 renal is 10 µM; with MOLT-4 leukemia, 3.87 µM; in the experiment with HCT-116 colon, 1760 nM. In addition, the TGI in the experiment with MDA-MB-231 breast is more than 100 µM; in the experiment on SK-MEL-28 melanoma, more than 100 µM; in the experiment on PC-3 prostate, 56.1 µM; in the experiment on UACC-62 melanoma, 24.1 µM; in the experiment on RPMI-8226 leukemia, 23.7 µM; in the experiment with A549 NSCLC, more than 100 µM. For the same compound, the TGI in the experiment on UO-31 renal turned out to be 81.5 µM; in the experiment on MOLT-4 leukemia, 23.8 µM; with HCT-116 colon it was 3.71 µM.

Regarding `C=C(c1ccccc1)C1(O)CCCCC1N` (stereo not drawn), the TGI in the experiment with SK-MEL-28 melanoma, with UACC-62 melanoma, in the experiment with RPMI-8226 leukemia, with A549 NSCLC, with UO-31 renal and in the experiment on MOLT-4 leukemia was more than 100 µM throughout. In the experiment with HCT-116 colon, this compound yielded a TGI of more than 100 µM.

With `O=C1Nc2ccccc2C1(O)C/C(=N/O)c1ccc2ccccc2c1` (stereo not drawn), the TGI in the experiment on SK-MEL-28 melanoma, in the experiment with RPMI-8226 leukemia, in the experiment on A549 NSCLC, in the experiment with UO-31 renal, in the experiment on MOLT-4 leukemia and in the experiment with HCT-116 colon was more than 100 µM throughout.

With `Cn1c(=O)c(N=Nc2c(=O)n(C)c(=O)n3c2[nH]c2ccccc23)c2[nH]c3ccccc3n2c1=O`, the TGI in the experiment on SK-MEL-28 melanoma, in the experiment on UACC-62 melanoma, with RPMI-8226 leukemia, with A549 NSCLC, in the experiment on UO-31 renal and with HCT-116 colon was more than 100 µM each time.

On to `COc1ccc2nccc(C3=CCC4CCN(C(=O)c5ccccc5)C3C4)c2c1` (stereo not drawn), for which the TGI in the experiment on SK-MEL-28 melanoma, in the experiment on UACC-62 melanoma, in the experiment with RPMI-8226 leukemia, in the experiment with A549 NSCLC, in the experiment on UO-31 renal and with MOLT-4 leukemia was more than 100 µM each time. Further, in the experiment on HCT-116 colon, the TGI is more than 100 µM.

Take `O=C1C2C3C=C4c5ccccc5N(c5ccccc5)C4(C2C(=O)N1c1ccccc1)C1C(=O)N(c2ccccc2)C(=O)C31` (stereo not drawn): the TGI in the experiment on SK-MEL-28 melanoma, in the experiment with A549 NSCLC, in the experiment on UO-31 renal, with MOLT-4 leukemia and in the experiment on HCT-116 colon was more than 100 µM in each case.

Turning to `Cn1c(=O)nc2n(-c3ccc(O)cc3)c3ccccc3nc-2c1=O`, the TGI is more than 100 µM in the experiment on SK-MEL-28 melanoma; 52.5 µM with UACC-62 melanoma; more than 100 µM in the experiment with RPMI-8226 leukemia; more than 100 µM in the experiment on A549 NSCLC; more than 100 µM in the experiment with UO-31 renal; more than 100 µM with MOLT-4 leukemia. The same compound returned a TGI in the experiment with HCT-116 colon of more than 100 µM.

As for `Cc1c(/C=N/NC(=O)c2ccccc2O)c(=O)n(-c2ccccc2)n1C`, the TGI in the experiment on SK-MEL-28 melanoma, in the experiment with UACC-62 melanoma, in the experiment with RPMI-8226 leukemia, in the experiment on A549 NSCLC, in the experiment with UO-31 renal and in the experiment on MOLT-4 leukemia was more than 100 µM each time. The TGI with HCT-116 colon is more than 100 µM.

As to `N#CC(N)=Nc1ccccc1`, the TGI with SK-MEL-28 melanoma, with UACC-62 melanoma, in the experiment on RPMI-8226 leukemia, in the experiment with A549 NSCLC, in the experiment with UO-31 renal and in the experiment on MOLT-4 leukemia was more than 100 µM each time. Moreover, the TGI in the experiment on HCT-116 colon is more than 100 µM.

For the compound `CC(=O)OCc1c2ccccc2c(C)c2c1cc(F)c1ccccc12`, the TGI with SK-MEL-28 melanoma was more than 100 µM; in the experiment with UACC-62 melanoma it was 43.6 µM; in the experiment with A549 NSCLC it was more than 100 µM; with UO-31 renal it was more than 100 µM; with MOLT-4 leukemia, 32.6 µM; in the experiment on HCT-116 colon it was more than 100 µM.

In the case of `O=C(COc1ccccc1Cl)N1N=C(c2ccc(Cl)cc2)CC1(O)c1ccccc1` (stereo not drawn), the TGI in the experiment with SK-MEL-28 melanoma, in the experiment on UACC-62 melanoma, with RPMI-8226 leukemia, in the experiment on A549 NSCLC, in the experiment with UO-31 renal and in the experiment on MOLT-4 leukemia was more than 100 µM throughout. In the experiment on HCT-116 colon, the TGI was more than 100 µM.

`O=C(/C=C/c1ccccc1)Oc1cccc2cccnc12`: the TGI was more than 86.3 µM with SK-MEL-28 melanoma; 27.1 µM with UACC-62 melanoma; more than 100 µM in the experiment with RPMI-8226 leukemia; 76.9 µM in the experiment on A549 NSCLC; more than 73 µM in the experiment with UO-31 renal; more than 51.1 µM with MOLT-4 leukemia. In the experiment with HCT-116 colon, this compound had a TGI of 10.9 µM.

Regarding `Nc1ncnc2c1ncn2C1OC(CSCC(F)(F)F)C(O)C1O` (stereo not drawn), the TGI in the experiment on SK-MEL-28 melanoma, with UACC-62 melanoma, with RPMI-8226 leukemia, in the experiment on A549 NSCLC, with UO-31 renal and with MOLT-4 leukemia was more than 100 µM throughout. The compound further had a TGI with HCT-116 colon of more than 100 µM.

Consider `Cn1ccnc1CCc1c(Cl)cccc1Cl`, for which the TGI in the experiment on SK-MEL-28 melanoma, with UACC-62 melanoma, with RPMI-8226 leukemia, in the experiment with A549 NSCLC, in the experiment on UO-31 renal and in the experiment with MOLT-4 leukemia was more than 100 µM each time. This compound also gave a TGI with HCT-116 colon of more than 100 µM.
